# Test results from publication PMC9894920, “Development of an improved and specific inhibitor of NADPH oxidase 2 to treat traumatic brain injury” (Redox Biology, 2023).
# Tests used:
# [1] = test system: mTBI induced cortical cell death; test: Focal cortical mTBI model, transcranial administration, cortical cell death (propidium iodide); type: in vivo, mouse
# [2] = molecular target: T1, NOX2 (Mus musculus, UniProt Q61093); test: NOX2 activity in primary mouse neutrophils enriched from bone marrow; type: cell-based; conditions: SD, n = 8 mice
# T1 construct: relative potencies in primary mouse neutrophils enriched from bone marrow; endogenous in cells; host or cells: primary mouse bone-marrow granulocytes
# T1 sequence (Q61093 2-570 limits assumed): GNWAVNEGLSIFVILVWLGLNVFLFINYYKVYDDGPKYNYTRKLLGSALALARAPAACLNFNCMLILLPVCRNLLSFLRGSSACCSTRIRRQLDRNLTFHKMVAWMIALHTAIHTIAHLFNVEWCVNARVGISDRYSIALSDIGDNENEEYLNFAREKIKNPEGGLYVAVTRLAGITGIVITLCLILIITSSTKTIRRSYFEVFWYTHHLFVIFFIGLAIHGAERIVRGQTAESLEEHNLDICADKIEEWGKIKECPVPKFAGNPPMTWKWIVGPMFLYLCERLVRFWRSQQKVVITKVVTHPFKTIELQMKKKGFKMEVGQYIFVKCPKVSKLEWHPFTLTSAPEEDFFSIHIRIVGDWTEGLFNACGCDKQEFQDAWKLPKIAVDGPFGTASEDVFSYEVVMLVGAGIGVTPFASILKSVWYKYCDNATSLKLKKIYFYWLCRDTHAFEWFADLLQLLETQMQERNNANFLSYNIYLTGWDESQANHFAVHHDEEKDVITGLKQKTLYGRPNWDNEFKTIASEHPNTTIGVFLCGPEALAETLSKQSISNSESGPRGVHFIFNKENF
# T1 sequence (Q61462 2-192 partner limits assumed): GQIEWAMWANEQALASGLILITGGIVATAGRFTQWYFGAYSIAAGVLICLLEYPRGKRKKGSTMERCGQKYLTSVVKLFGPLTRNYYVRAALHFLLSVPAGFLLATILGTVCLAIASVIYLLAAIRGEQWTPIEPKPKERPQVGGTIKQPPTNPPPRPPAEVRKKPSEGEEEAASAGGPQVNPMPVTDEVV
# Procedure: Human blood was obtained after informed consent by the Department of Transfusion Medicine (NIH Clinical Center) and provided as de-identified specimens. Human granulocytes were isolated using Percoll density fractionation as described and NOX2 activity was assessed in white polypropylene flat bottom 96 well plates following 15 min of preincubation at 37 °C with compounds or vehicle controls using 50 μM luminol as a chemiluminescence enhancer in an assay volume of 100 μl RPMI1640 with 1.1 × 10^5 cells/well in Varioskan Lux luminometer for 30 cycles of 1 s per well (approximately 1 h).
# Mouse granulocytes were isolated from bone marrow essentially as described except bones were not sterilized in ethanol and marrow was not flushed through a 100 μm strainer. Furthermore, RPMI1640 was supplemented with 10% FBS, 2 mM EDTA, and 25 mM HEPES buffer and penicillin/streptomycin was omitted. Polymorphonuclear leukocytes (PMN) concentration and purity (>90% granulocytes) were assessed microscopically using 3% acetic acid and a hemacytometer. NOX2 activity was assessed as described above with human granulocytes.
# [3] = molecular target: T2, NOX5 (Homo sapiens, UniProt Q96PH1); test: Expi293 whole cell assay, NOX5 overexpression; type: cell-based; conditions: highest dose about 100x the IC50 versus NOX2
# T2 sequence (Q96PH1 1-719 isoform Q96PH1-4): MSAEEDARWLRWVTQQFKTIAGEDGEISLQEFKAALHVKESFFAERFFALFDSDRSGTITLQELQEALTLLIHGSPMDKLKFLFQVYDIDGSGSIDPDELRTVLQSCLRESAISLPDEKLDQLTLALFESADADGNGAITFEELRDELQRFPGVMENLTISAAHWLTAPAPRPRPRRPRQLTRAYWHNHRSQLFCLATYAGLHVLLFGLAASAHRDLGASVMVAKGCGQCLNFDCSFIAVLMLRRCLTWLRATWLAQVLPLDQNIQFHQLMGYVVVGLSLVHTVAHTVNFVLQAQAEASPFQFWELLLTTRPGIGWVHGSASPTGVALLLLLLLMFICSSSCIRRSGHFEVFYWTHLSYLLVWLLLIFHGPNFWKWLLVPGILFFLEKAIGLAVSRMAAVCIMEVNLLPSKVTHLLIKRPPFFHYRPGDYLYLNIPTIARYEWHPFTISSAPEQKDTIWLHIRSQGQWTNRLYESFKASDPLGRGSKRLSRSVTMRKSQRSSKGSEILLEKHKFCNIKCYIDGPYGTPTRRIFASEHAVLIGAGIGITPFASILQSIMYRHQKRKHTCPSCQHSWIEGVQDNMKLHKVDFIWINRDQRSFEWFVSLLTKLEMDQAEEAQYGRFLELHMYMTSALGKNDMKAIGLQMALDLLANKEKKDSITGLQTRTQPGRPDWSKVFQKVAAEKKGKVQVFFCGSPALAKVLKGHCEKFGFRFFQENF
# Procedure: Given concerns about previous assays for specific NOX family members we here report the first use of the Expi293 Expression System (Thermo Scientific) to overexpress NOX1, 2, 3, 4, and 5 in excess of any endogenous NOX proteins present in these cells. Transfections were performed following the manufacturer's instructions using the plasmids for each NOX as described in Supplemental Table 2 except that the enhancer solution provided with the Expi293 system was not used because it promoted enzyme activation.
# After the times indicated in Supplemental Table 2, cells were washed and 50,000 added per well of a white 96-well plate (Greiner) along with 50 μM Luminol and 2.5 U horseradish peroxidase/mL in a volume of 90 μl for NOX1, NOX2, and NOX5. Inhibitors or vehicle controls were added and cells were incubated for 20 min at 37 °C prior to activation with the indicated stimuli. For NOX3 and NOX4 (constitutively active), cells were incubated with inhibitor or vehicle control prior to the addition of luminol and HRP. Chemiluminescence was measured every 2 min for 1 s per well at 37 °C in a Varioscan Multimode reader. AUC data were analyzed using GraphPad Prism using non-linear regression analysis after expressing relative to control alone (maximum ROS production).
structure (smiles),measurement,setting,value
"Cn1ccc(S(=O)(=O)Nc2ccnc3c2c(-c2ccc4ccn(C)c4c2)cn3C2CC2)n1 [NCATS-SM7270, N-(1-cyclopropyl-3-(1-methyl-1H-indol-6-yl)-1H-pyrrolo [2,3-b]pyridin-4-yl)-1-methyl-1H-pyrazole-3-sulfonamide]",cortical cell death in NOX1 deficient mice,"[1]; NOX1 KO mice, 40 μM transcranial",had no impact
same,cortical cell death in NOX2 deficient mice,"[1]; NOX2 KO mice, 40 μM transcranial",had no impact
same,cortical cell death in NOX4 KO mice,"[1]; NOX4 KO mice, 40 μM transcranial",significantly reduced cortical cell death
same,reduction of cortical cell death,"[1]; WT mice, 40 μM transcranially immediately after mTBI",~50%
same,dose dependence of reduction in mTBI induced cortical cell death,"[1]; WT mice, transcranial, titration 10, 50 or 100 μM",dose-dependent reduction
same,IC50,[2],4.28 ± 1.05 µM
same,activity against NOX5,[3],only marginal activity at the highest dose tested
